Measurements published in PubChem BioAssay (NCI).
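A five-concentration, 48-hour dose response in 96-well plates underlies each endpoint, interpolated linearly between surrounding concentrations. TGI: concentration producing complete growth inhibition.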

Columns and labels:
Test in all cases: NCI tumour cell line growth inhibition, 48 h
SN12C renal = test system: SN12C renal
RXF 393 renal = test system: RXF 393 renal
LOX IMVI melanoma = test system: LOX IMVI melanoma
NCI-H23 lung = test system: NCI-H23 lung
BT-549 breast = test system: BT-549 breast
NCI-H460 lung = test system: NCI-H460 lung
SF-539 CNS = test system: SF-539 CNS
SNB-19 CNS = test system: SNB-19 CNS
EKVX NSCLC = test system: EKVX NSCLC
DU-145 prostate = test system: DU-145 prostate
TK-10 renal = test system: TK-10 renal
IGROV1 ovarian = test system: IGROV1 ovarian
HCT-15 colon = test system: HCT-15 colon
786-0 renal = test system: 786-0 renal
OVCAR-5 ovarian = test system: OVCAR-5 ovarian
ACHN renal = test system: ACHN renal
HCC-2998 colon = test system: HCC-2998 colon
SF-268 CNS = test system: SF-268 CNS
SF-295 CNS = test system: SF-295 CNS
HT29 colon = test system: HT29 colon
K-562 leukemia = test system: K-562 leukemia
MALME-3M melanoma = test system: MALME-3M melanoma
KM12 colon = test system: KM12 colon
MCF7 breast = test system: MCF7 breast
SK-MEL-5 melanoma = test system: SK-MEL-5 melanoma
HOP-62 NSCLC = test system: HOP-62 NSCLC
NCI/ADR-RES ovarian = test system: NCI/ADR-RES ovarian
U251 CNS = test system: U251 CNS
A498 renal = test system: A498 renal
RPMI-8226 leukemia = test system: RPMI-8226 leukemia
HCT-116 colon = test system: HCT-116 colon
SR leukemia = test system: SR leukemia
T-47D breast = test system: T-47D breast
UACC-257 melanoma = test system: UACC-257 melanoma
A549 NSCLC = test system: A549 NSCLC
SK-MEL-28 melanoma = test system: SK-MEL-28 melanoma
M14 melanoma = test system: M14 melanoma
MDA-N = test system: MDA-N
HL-60(TB) leukemia = test system: HL-60(TB) leukemia
SK-MEL-2 melanoma = test system: SK-MEL-2 melanoma
OVCAR-3 ovarian = test system: OVCAR-3 ovarian
PC-3 prostate = test system: PC-3 prostate
HOP-92 NSCLC = test system: HOP-92 NSCLC
HS 578T breast = test system: HS 578T breast
SW-620 colon = test system: SW-620 colon
NCI-H522 lung = test system: NCI-H522 lung
UACC-62 melanoma = test system: UACC-62 melanoma
MOLT-4 leukemia = test system: MOLT-4 leukemia
OVCAR-8 ovarian = test system: OVCAR-8 ovarian
UO-31 renal = test system: UO-31 renal
OVCAR-4 ovarian = test system: OVCAR-4 ovarian
CAKI-1 renal = test system: CAKI-1 renal
MDA-MB-435 = test system: MDA-MB-435
CCRF-CEM leukemia = test system: CCRF-CEM leukemia
SNB-75 CNS = test system: SNB-75 CNS
COLO 205 colon = test system: COLO 205 colon
SK-OV-3 ovarian = test system: SK-OV-3 ovarian
MDA-MB-231 breast = test system: MDA-MB-231 breast
NCI-H226 lung = test system: NCI-H226 lung

`COc1ccc(C2c3cc4c(cc3OC(N3CCOCC3)C2C)OCO4)cc1` (stereo not drawn) was tested. Which TGI (SN12C renal) did it give?
Its TGI is greater than 100 µM.

What about the TGI (RXF 393 renal) of the same compound?
Its TGI is 63.3 µM.

What about the TGI (LOX IMVI melanoma) of the same compound?
The TGI was greater than 79.5 µM.

And the TGI (NCI-H23 lung)?
Its TGI is greater than 100 µM.

And the TGI (BT-549 breast)?
The TGI was greater than 100 µM.

What about the TGI (NCI-H460 lung) of the same compound?
Its TGI is greater than 100 µM.

And the TGI (SF-539 CNS)?
Its TGI is 68.6 µM.

And the TGI (SNB-19 CNS)?
Its TGI is greater than 96.7 µM.

And the TGI (EKVX NSCLC)?
The TGI was greater than 100 µM.

What about the TGI (DU-145 prostate) of the same compound?
The TGI was greater than 100 µM.

And the TGI (TK-10 renal)?
The TGI was greater than 100 µM.

And the TGI (IGROV1 ovarian)?
The TGI was greater than 100 µM.

What about the TGI (HCT-15 colon) of the same compound?
Its TGI is greater than 100 µM.

And the TGI (786-0 renal)?
Its TGI is greater than 100 µM.

And the TGI (OVCAR-5 ovarian)?
The TGI was greater than 87.5 µM.

And the TGI (ACHN renal)?
The TGI was greater than 100 µM.

And the TGI (HCC-2998 colon)?
The TGI was 67 µM.

And the TGI (SF-268 CNS)?
Its TGI is greater than 100 µM.

And the TGI (SF-295 CNS)?
The TGI was 67.5 µM.

And the TGI (HT29 colon)?
Its TGI is greater than 67.6 µM.

And the TGI (K-562 leukemia)?
The TGI was greater than 31.6 µM.

What about the TGI (MALME-3M melanoma) of the same compound?
Its TGI is 40.7 µM.

What about the TGI (KM12 colon) of the same compound?
The TGI was greater than 100 µM.

What about the TGI (MCF7 breast) of the same compound?
The TGI was greater than 71.5 µM.

And the TGI (SK-MEL-5 melanoma)?
Its TGI is 72.4 µM.

What about the TGI (HOP-62 NSCLC) of the same compound?
Its TGI is greater than 72.2 µM.

And the TGI (NCI/ADR-RES ovarian)?
The TGI was greater than 91.2 µM.

What about the TGI (U251 CNS) of the same compound?
The TGI was 68.1 µM.

And the TGI (A498 renal)?
Its TGI is 34.8 µM.

What about the TGI (RPMI-8226 leukemia) of the same compound?
Its TGI is 61.7 µM.

What about the TGI (HCT-116 colon) of the same compound?
The TGI was greater than 100 µM.

What about the TGI (SR leukemia) of the same compound?
Its TGI is greater than 76.1 µM.

What about the TGI (T-47D breast) of the same compound?
The TGI was 61.6 µM.

And the TGI (UACC-257 melanoma)?
Its TGI is greater than 100 µM.

And the TGI (A549 NSCLC)?
Its TGI is greater than 90.6 µM.

What about the TGI (SK-MEL-28 melanoma) of the same compound?
The TGI was greater than 88 µM.

And the TGI (M14 melanoma)?
The TGI was greater than 89 µM.

And the TGI (MDA-N)?
Its TGI is greater than 82 µM.

What about the TGI (HL-60(TB) leukemia) of the same compound?
Its TGI is 91.2 µM.

What about the TGI (SK-MEL-2 melanoma) of the same compound?
Its TGI is greater than 71 µM.

And the TGI (OVCAR-3 ovarian)?
The TGI was greater than 86.1 µM.

And the TGI (PC-3 prostate)?
The TGI was greater than 100 µM.

What about the TGI (HOP-92 NSCLC) of the same compound?
Its TGI is 58.2 µM.

What about the TGI (HS 578T breast) of the same compound?
The TGI was 63 µM.

And the TGI (SW-620 colon)?
Its TGI is greater than 100 µM.

And the TGI (NCI-H522 lung)?
The TGI was greater than 82 µM.

What about the TGI (UACC-62 melanoma) of the same compound?
Its TGI is greater than 95.6 µM.

And the TGI (MOLT-4 leukemia)?
Its TGI is greater than 31.6 µM.

And the TGI (OVCAR-8 ovarian)?
Its TGI is greater than 100 µM.

And the TGI (UO-31 renal)?
Its TGI is greater than 100 µM.

What about the TGI (OVCAR-4 ovarian) of the same compound?
The TGI was greater than 100 µM.

What about the TGI (CAKI-1 renal) of the same compound?
The TGI was 55.1 µM.

And the TGI (MDA-MB-435)?
The TGI was greater than 60.4 µM.

What about the TGI (CCRF-CEM leukemia) of the same compound?
The TGI was greater than 78.2 µM.

What about the TGI (SNB-75 CNS) of the same compound?
The TGI was greater than 100 µM.

And the TGI (COLO 205 colon)?
Its TGI is greater than 100 µM.

For `COc1ccc(C2(CC(C)C)CCN(S(=O)(=O)c3ccc(C)cc3)C2)cc1OC` (stereo not drawn), which TGI (SN12C renal) is on record?
Its TGI is greater than 100 µM.

What about the TGI (RXF 393 renal) of the same compound?
The TGI was greater than 100 µM.

What about the TGI (LOX IMVI melanoma) of the same compound?
Its TGI is 74.3 µM.

What about the TGI (NCI-H23 lung) of the same compound?
Its TGI is greater than 100 µM.

What about the TGI (BT-549 breast) of the same compound?
Its TGI is greater than 100 µM.

And the TGI (NCI-H460 lung)?
Its TGI is greater than 100 µM.

And the TGI (SF-539 CNS)?
Its TGI is greater than 100 µM.

What about the TGI (SNB-19 CNS) of the same compound?
The TGI was greater than 100 µM.

What about the TGI (EKVX NSCLC) of the same compound?
Its TGI is greater than 100 µM.

What about the TGI (DU-145 prostate) of the same compound?
Its TGI is greater than 100 µM.

What about the TGI (TK-10 renal) of the same compound?
The TGI was greater than 100 µM.

And the TGI (IGROV1 ovarian)?
Its TGI is greater than 100 µM.

And the TGI (HCT-15 colon)?
The TGI was greater than 100 µM.

What about the TGI (786-0 renal) of the same compound?
Its TGI is greater than 100 µM.

What about the TGI (SK-OV-3 ovarian) of the same compound?
The TGI was greater than 100 µM.

What about the TGI (OVCAR-5 ovarian) of the same compound?
Its TGI is greater than 100 µM.

And the TGI (ACHN renal)?
Its TGI is greater than 100 µM.

What about the TGI (HCC-2998 colon) of the same compound?
Its TGI is greater than 100 µM.

And the TGI (SF-268 CNS)?
The TGI was 95.4 µM.

What about the TGI (SF-295 CNS) of the same compound?
Its TGI is greater than 100 µM.

And the TGI (HT29 colon)?
The TGI was greater than 100 µM.

And the TGI (K-562 leukemia)?
The TGI was 76.5 µM.

And the TGI (KM12 colon)?
Its TGI is 68 µM.

What about the TGI (MCF7 breast) of the same compound?
Its TGI is greater than 100 µM.

And the TGI (SK-MEL-5 melanoma)?
Its TGI is 32.6 µM.

And the TGI (HOP-62 NSCLC)?
Its TGI is greater than 100 µM.

What about the TGI (NCI/ADR-RES ovarian) of the same compound?
Its TGI is 70.5 µM.

And the TGI (U251 CNS)?
The TGI was greater than 100 µM.

What about the TGI (HCT-116 colon) of the same compound?
Its TGI is 92.6 µM.

And the TGI (SR leukemia)?
The TGI was greater than 100 µM.

And the TGI (T-47D breast)?
The TGI was greater than 100 µM.

What about the TGI (UACC-257 melanoma) of the same compound?
The TGI was greater than 100 µM.

What about the TGI (A549 NSCLC) of the same compound?
Its TGI is greater than 100 µM.

And the TGI (SK-MEL-28 melanoma)?
The TGI was greater than 100 µM.

What about the TGI (M14 melanoma) of the same compound?
The TGI was greater than 100 µM.

And the TGI (MDA-MB-231 breast)?
Its TGI is greater than 100 µM.

What about the TGI (MDA-N) of the same compound?
The TGI was greater than 100 µM.

What about the TGI (SK-MEL-2 melanoma) of the same compound?
The TGI was 47.2 µM.

And the TGI (OVCAR-3 ovarian)?
Its TGI is 55.8 µM.

And the TGI (PC-3 prostate)?
Its TGI is greater than 100 µM.

What about the TGI (SW-620 colon) of the same compound?
The TGI was greater than 100 µM.

And the TGI (NCI-H522 lung)?
The TGI was greater than 100 µM.

What about the TGI (NCI-H226 lung) of the same compound?
Its TGI is greater than 100 µM.

And the TGI (UACC-62 melanoma)?
Its TGI is greater than 100 µM.

What about the TGI (MOLT-4 leukemia) of the same compound?
Its TGI is 17.4 µM.

What about the TGI (UO-31 renal) of the same compound?
The TGI was greater than 100 µM.

What about the TGI (OVCAR-4 ovarian) of the same compound?
Its TGI is greater than 100 µM.

What about the TGI (CAKI-1 renal) of the same compound?
Its TGI is greater than 100 µM.

And the TGI (MDA-MB-435)?
Its TGI is greater than 100 µM.

What about the TGI (CCRF-CEM leukemia) of the same compound?
Its TGI is 64.3 µM.

What about the TGI (SNB-75 CNS) of the same compound?
Its TGI is greater than 100 µM.

What about the TGI (COLO 205 colon) of the same compound?
Its TGI is greater than 100 µM.
